According to patent US8980888B2, “Pyrazole derivative” (Mochida Pharmaceutical Co., Ltd., priority 2013, dated 2015):

Biological target: T1, Human PDE10 (Homo sapiens, UniProt Q9Y233)
T1 construct: purchased BPA Bioscience (so in the source)
Test: Human PDE10 inhibitory effect (IMAP TR-FRET enzyme inhibition assay)
Assay type: biochemical
Conditions: PDE10 inhibitory activity, cAMP substrate
Description: (Evaluation of Enzyme Inhibitory Activity: Human PDE10 Inhibitory Effect)
IMAP TR-FRET Phosphodiersterase Evaluation Assay Kit (Molecular Device) was used for the measurement. Ten μL of a diluted test compound having each concentration and 5 μL of the enzyme PDE10 (BPA Bioscience) that had been diluted to 2 ng/mL with 1×IMAP Reaction Buffer (prepared with 5× included with the kit, 10 mM Tris-HCl, pH=7.2, 10 mM MgCl2, 0.05% NaN3, and 0.1% BSA) containing 0.1% BSA were added to a 384-well plate (Corning). The obtained mixture was then pre-incubated at room temperature for 5 minutes. Thereafter, 5 μL of cAMP substrate solution which was included with the kit and diluted to 400 nM with 1×IMAP Reaction Buffer containing 0.1% BSA, was added to the reaction solution, and the obtained mixture was reacted at room temperature for 60 minutes. Thereafter, 60 μL of an IMAP TR-FRET Binding solution included with the kit was further added to the reaction solution, and the obtained mixture was then left for 3 hours or more. Subsequently, using ARVO SX (PerkinElmer), the fluorescent intensity of Terbium (Emission=490 nm) and TR-FRET (Emission=520 nm) in the reaction solution were measured at an excitation wavelength of 340 nm, so as to calculate the amount of the generated 5′-AMP. The count of a well to which a solvent had been added instead of the test compound was set at 0%, and the count of a well to which the enzyme PDE10 had not been added was set at 100%. Thus, the inhibitory activity of each test compound was calculated.
The PDE10 inhibitory activity of the test compound was indicated with an IC50 value. […] The test compounds are shown in Table 3 (Table 3-1 and Table 3-2).

T1 sequence (Q9Y233 whole entry): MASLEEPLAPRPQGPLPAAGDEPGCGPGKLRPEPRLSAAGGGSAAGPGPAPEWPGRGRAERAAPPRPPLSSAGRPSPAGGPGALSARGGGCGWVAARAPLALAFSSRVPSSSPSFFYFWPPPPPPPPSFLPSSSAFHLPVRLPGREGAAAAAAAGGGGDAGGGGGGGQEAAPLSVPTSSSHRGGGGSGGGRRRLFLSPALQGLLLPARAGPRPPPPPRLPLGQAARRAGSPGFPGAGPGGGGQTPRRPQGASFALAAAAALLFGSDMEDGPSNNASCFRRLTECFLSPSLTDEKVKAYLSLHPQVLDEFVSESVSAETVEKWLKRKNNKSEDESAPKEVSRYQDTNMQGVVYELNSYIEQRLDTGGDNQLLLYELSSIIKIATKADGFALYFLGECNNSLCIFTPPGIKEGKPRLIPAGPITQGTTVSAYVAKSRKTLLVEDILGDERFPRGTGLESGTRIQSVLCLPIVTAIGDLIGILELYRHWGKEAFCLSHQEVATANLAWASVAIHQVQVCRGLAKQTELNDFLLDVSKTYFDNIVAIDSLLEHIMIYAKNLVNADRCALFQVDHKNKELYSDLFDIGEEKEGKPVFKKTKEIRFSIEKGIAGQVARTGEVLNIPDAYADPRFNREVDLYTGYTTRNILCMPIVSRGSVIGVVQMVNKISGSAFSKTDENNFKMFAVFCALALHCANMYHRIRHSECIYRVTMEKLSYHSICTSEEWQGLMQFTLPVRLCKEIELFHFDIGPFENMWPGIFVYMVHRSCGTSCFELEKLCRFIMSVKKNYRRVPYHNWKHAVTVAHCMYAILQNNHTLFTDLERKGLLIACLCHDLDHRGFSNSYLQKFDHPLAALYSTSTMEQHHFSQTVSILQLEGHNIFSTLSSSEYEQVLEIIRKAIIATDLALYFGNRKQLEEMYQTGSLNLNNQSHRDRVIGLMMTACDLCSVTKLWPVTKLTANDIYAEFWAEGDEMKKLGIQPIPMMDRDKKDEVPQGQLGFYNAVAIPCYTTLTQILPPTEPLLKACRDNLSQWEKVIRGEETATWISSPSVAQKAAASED

## Cc1cnc(C)c(-c2cnn(C)c2C(=O)NC2CCn3nc(-c4ccccc4)nc3C2)n1 (centres unmarked) [Example 5.14, 4-(3,6-dimethylpyrazin-2-yl)-1-methyl-N-(2-phenyl-5,6,7,8-tetrahydro-[1,2,4]triazolo[1,5-a]pyridin-7-yl)-1H-pyrazole-5-carboxamide]
  IC50: 5 to 100 nM

## Cc1nnc(-c2cnn(C)c2C(=O)NC2CCn3cc(-c4ccccc4)nc3C2)s1 (centres unmarked) [Example 2.10, 1-methyl-4-(5-methyl-1,3,4-thiadiazol-2-yl)-N-(2-phenyl-5,6,7,8-tetrahydroimidazo[1,2-a]pyridin-7-yl)-1H-pyrazole-5-carboxamide]
  IC50: < 5 nM

## Cc1nc(-c2cnn(C)c2C(=O)NC2CCn3nc(-c4ccccc4)nc3C2)sc1C (centres unmarked) [Example 5.4, 4-(4,5-dimethylthiazol-2-yl)-1-methyl-N-(2-phenyl-5,6,7,8-tetrahydro-[1,2,4]triazolo[1,5-a]pyridin-7-yl)-1H-pyrazole-5-carboxamide]
  IC50: < 5 nM

## Cn1ncc(-c2nc(C(F)F)c(C3CC3)s2)c1C(=O)NC1CCn2nc(-c3cccc(F)c3)nc2C1 (centres unmarked) [Example 5.42, 4-(5-cyclopropyl-4-(difluoromethyl)thiazol-2-yl)-N-(2-(3-fluorophenyl)-5,6,7,8-tetrahydro-[1,2,4]triazolo[1,5-a]pyridin-7-yl)-1-methyl-1H-pyrazole-5-carboxamide]
  IC50: 5 to 100 nM

## Cc1cc(-c2cnn(C)c2C(=O)Nc2cc3nc(-c4ccccc4)nn3cc2F)nc(C)n1 [Example 3.30, 4-(2,6-dimethylpyrimidin-4-yl)-N-(6-fluoro-2-phenyl-[1,2,4]triazolo[1,5-a]pyridin-7-yl)-1-methyl-1H-pyrazole-5-carboxamide]
  IC50: < 5 nM

## Cn1ncc(-c2nc(C(F)F)cs2)c1C(=O)NC1CCn2nc(-c3ccccc3F)nc2C1 (centres unmarked) [Example 5.32, 4-(4-(difluoromethyl)thiazol-2-yl)-N-(2-(2-fluorophenyl)-5,6,7,8-tetrahydro-[1,2,4]triazolo[1,5-a]pyridin-7-yl)-1-methyl-1H-pyrazole-5-carboxamide]
  IC50: 5 to 100 nM

## Cc1nc(-c2cnn(C)c2C(=O)NC2CCn3cc(-c4ccccc4)nc3C2)sc1C (centres unmarked) [Example 2.2, 4-(4,5-dimethylthiazol-2-yl)-1-methyl-N-(2-phenyl-5,6,7,8-tetrahydroimidazo[1,2-a]pyridin-7-yl)-1H-pyrazole-5-carboxamide]
  IC50: < 5 nM

## Cc1ccnc(-c2cnn(C)c2C(=O)Nc2ccn3nc(N4CCCC4)nc3c2)c1 [Example 4.30, 1-methyl-4-(4-methylpyridin-2-yl)-N-(2-(pyrrolidin-1-yl)-[1,2,4]triazolo[1,5-a]pyridin-7-yl)-1H-pyrazole-5-carboxamide]
  IC50: < 5 nM

## COc1ccnc(-c2cnn(C)c2C(=O)NC2CCn3nc(-c4ccccc4)nc3C2)c1 (centres unmarked) [Example 5.25, 4-(4-methoxypyridin-2-yl)-1-methyl-N-(2-phenyl-5,6,7,8-tetrahydro-[1,2,4]triazolo[1,5-a]pyridin-7-yl)-1H-pyrazole-5-carboxamide]
  IC50: 5 to 100 nM

## CC(=O)c1sc(C)nc1-c1cnn(C)c1C(=O)NC1CCn2nc(-c3cccc(F)c3)nc2C1 (centres unmarked) [Example 5.44, 4-(5-acetyl-2-methylthiazol-4-yl)-N-(2-(3-fluorophenyl)-5,6,7,8-tetrahydro-[1,2,4]triazolo[1,5-a]pyridin-7-yl)-1-methyl-1H-pyrazole-5-carboxamide]
  IC50: 5 to 100 nM

## COC[C@H]1CCCN1c1nc2n(n1)CCC(NC(=O)c1c(-c3nc(C(F)F)cs3)cnn1C)C2 (stereo partly drawn) [Example 5.16, 4-(4-(difluoromethyl)thiazol-2-yl)-N-(2-((R)-2-(methoxymethyl)pyrrolidin-1-yl)-5,6,7,8-tetrahydro-[1,2,4]triazolo[1,5-a]pyridin-7-yl)-1-methyl-1H-pyrazole-5-carboxamide]
  IC50: 5 to 100 nM

## Cc1nc(-c2cnn(C)c2C(=O)NC2CCn3nc(-c4ccccc4)nc3C2)c(C)s1 (centres unmarked) [Example 5.39, 4-(2,5-dimethylthiazol-4-yl)-1-methyl-N-(2-phenyl-5,6,7,8-tetrahydro-[1,2,4]triazolo[1,5-a]pyridin-7-yl)-1H-pyrazole-5-carboxamide]
  IC50: 5 to 100 nM

## Cc1ccnc(-c2cnn(C)c2C(=O)NC2CCn3nc(-c4ccccc4)nc3C2)c1 (centres unmarked) [Example 5.20, 1-methyl-4-(4-methylpyridin-2-yl)-N-(2-phenyl-5,6,7,8-tetrahydro-[1,2,4]triazolo[1,5-a]pyridin-7-yl)-1H-pyrazole-5-carboxamide]
  IC50: 5 to 100 nM

## Cc1nc(-c2cnn(C)c2C(=O)NC2CCn3nc(-c4ccccc4)nc3C2)sc1C1CC1 (centres unmarked) [Example 5.38, 4-(5-cyclopropyl-4-methylthiazol-2-yl)-1-methyl-N-(2-phenyl-5,6,7,8-tetrahydro-[1,2,4]triazolo[1,5-a]pyridin-7-yl)-1H-pyrazole-5-carboxamide]
  IC50: 5 to 100 nM

## Cn1ncc(-c2cc(F)ccn2)c1C(=O)NC1CCn2nc(-c3ccccc3)nc2C1 (centres unmarked) [Example 5.23, 4-(4-fluoropyridin-2-yl)-1-methyl-N-(2-phenyl-5,6,7,8-tetrahydro-[1,2,4]triazolo[1,5-a]pyridin-7-yl)-1H-pyrazole-5-carboxamide]
  IC50: 5 to 100 nM

## Cn1ncc(-c2cccc(C(F)(F)F)n2)c1C(=O)Nc1cc2nc(-c3ccccc3)nn2cc1F [Example 3.10, N-(6-fluoro-2-phenyl-[1,2,4]triazolo[1,5-a]pyridin-7-yl)-1-methyl-4-(6-(trifluoromethyl)pyridin-2-yl)-1H-pyrazole-5-carboxamide]
  IC50: < 5 nM

## Cn1ncc(-c2ccc(F)cn2)c1C(=O)NC1CCn2nc(-c3ccccc3)nc2C1 (centres unmarked) [Example 5.24, 4-(5-fluoropyridin-2-yl)-1-methyl-N-(2-phenyl-5,6,7,8-tetrahydro-[1,2,4]triazolo[1,5-a]pyridin-7-yl)-1H-pyrazole-5-carboxamide]
  IC50: 5 to 100 nM

## Cc1nc(-c2cnn(C)c2C(=O)NC2CCn3nc(-c4ccccc4)nc3C2)c(Br)s1 (centres unmarked) [Example 5.13, 4-(5-bromo-2-methylthiazol-4-yl)-1-methyl-N-(2-phenyl-5,6,7,8-tetrahydro-[1,2,4]triazolo[1,5-a]pyridin-7-yl)-1H-pyrazole-5-carboxamide]
  IC50: 5 to 100 nM

## Cc1cccc(-c2cnn(C)c2C(=O)NC2CCn3nc(-c4ccccc4)nc3C2)n1 (centres unmarked) [Example 5.19, 1-methyl-4-(6-methylpyridin-2-yl)-N-(2-phenyl-5,6,7,8-tetrahydro-[1,2,4]triazolo[1,5-a]pyridin-7-yl)-1H-pyrazole-5-carboxamide]
  IC50: 5 to 100 nM

## Cn1ncc(-c2nc(C(F)F)c(Cl)s2)c1C(=O)Nc1ccn2nc(-c3ccccc3)nc2c1 [Example 3.20, 4-(5-chloro-4-(difluoromethyl)thiazol-2-yl)-1-methyl-N-(2-phenyl-[1,2,4]triazolo[1,5-a]pyridin-7-yl)-1H-pyrazole-5-carboxamide]
  IC50: < 5 nM

## Cc1cc(C)nc(-c2cnn(C)c2C(=O)Nc2ccn3nc(N4CC[C@H](F)C4)nc3c2)c1 [Example 4.20, (S)-4-(4,6-dimethylpyridin-2-yl)-N-(2-(3-fluoropyrrolidin-1-yl)-[1,2,4]triazolo[1,5-a]pyridin-7-yl)-1-methyl-1H-pyrazole-5-carboxamide]
  IC50: < 5 nM

## C[C@H]1CCCN1c1nc2cc(NC(=O)c3c(-c4nc(C(F)(F)F)cs4)cnn3C)ccn2n1 [Example 4.10]
  IC50: < 5 nM

## Cc1csc(-c2cnn(C)c2C(=O)NC2CCn3cc(-c4ccccc4)nc3C2)n1 (centres unmarked) [Example 2.1, 1-methyl-4-(4-methylthiazol-2-yl)-N-(2-phenyl-5,6,7,8-tetrahydroimidazo[1,2-a]pyridin-7-yl)-1H-pyrazole-5-carboxamide]
  IC50: < 5 nM
